Data reported in ChEMBL document CHEMBL2086361, “Synthesis and biological activity of pyridopyridazin-6-one p38α MAP kinase inhibitors. Part 2” (Bioorg Med Chem Lett, 2012).

Key:
in vivo [1] = conditions: rat, po, 2 mg/kg
in vivo [2] = conditions: rat, plasma
in vivo [3] = conditions: rhesus monkey, po, 2 mg/kg
in vivo [4] = conditions: dog, po, 2 mg/kg
in vivo [5] = conditions: rhesus monkey
in vivo [6] = conditions: dog, iv, 0.25 mg/kg
in vivo [7] = conditions: dog, plasma
in vivo [8] = conditions: rhesus monkey, iv, 1 mg/kg
in vivo [9] = conditions: rhesus monkey, plasma
in vivo [10] = conditions: dog
in vivo [11] = conditions: rat
in vivo [12] = conditions: rat, iv, 1 mg/kg

Cc1nnc(-c2ccc(F)c(-c3c(=O)ccn4nc(Oc5ccc(F)cc5F)ccc34)c2)o1
bioavailability (in vivo [1]): 93% | AUC (in vivo [2]): 20 µM·h | bioavailability (in vivo [3]): 31% | bioavailability (in vivo [4]): 15% | half-life (in vivo [5]): 6.9 h | clearance (in vivo [6]): 2.8 mL/min/kg | AUC (in vivo [7]): 2.1 µM·h | clearance (in vivo [8]): 2 mL/min/kg | AUC (in vivo [9]): 5.6 µM·h | half-life (in vivo [10]): 4.5 h | half-life (in vivo [11]): 4.4 h | clearance (in vivo [12]): 2 mL/min/kg
